Assay results reported in patent US6596258B1, “Method of obtaining extracellular and intracellular pH images and spectra by magnetic resonance using extrinsic indicators containing 1H or 19F” (Universidad Nacional de Educacion a Distancia, priority 1997, dated 2003).

What was measured:
[1] = Kinetics of tissue uptake after intravenous injection, 1H NMR of perchloric acid organ extracts; conditions: Wistar rats, 1 mmol intravenous
[2] = Plasma kinetics after intravenous (jugular vein) injection, 1H NMR of plasma; conditions: male Wistar rats
Male Swiss albino mice = assay: Toxicity (LD50) in intact animals, intraperitoneal, method of Miller and Tainter; conditions: doses as high as 3 g/Kg of body weight
Description: At least seven different doses, each one of then administered to six mice, which were kept in different cages, were used for each compound.

[3] = tested on: NIH 3T3 mouse fibroblasts; assay: Toxicity in cell culture (cell survival after 72 h incubation); conditions: for Cell survival (average optical density, an index of cell number): NIH 3T3, mean±SD of four determinations
Experimental: NIH 3T3 mouse fibroblasts were grown in Dulbecco modified essential medium (DMEM) supplemented with 10% fetal calf serum (FCS, Hyclone, Logan, Utah, USA).
Results represent the mean±SD of four determinations from different culture dishes at each concentration.

[4] = injection into right jugular vein

Structure (SMILES) | Concentration reached in kidney [1] | Concentration reached in skeletal muscle [1] | Time of peak concentration in kidney [1] [min] | Time of peak concentration in skeletal muscle [1] [min] | Clearance from plasma, t1/2 [2, 4] [min] | Highest concentration in plasma [2, 4] [mM] | Time after injection at which highest plasma concentration was attained [2, 4] [min] | Signs of toxicity during the pharmacokinetic experiment ([2]; intravenous injection) | Concentration reached in brain [1] | Concentration reached in heart [1] | Concentration reached in liver [1] | Toxicity in intact animals (in words) (Male Swiss albino mice) | Cell survival (average optical density, an index of cell number) ([3]; 1.0 mM compound) | Cell survival (average optical density, an index of cell number) ([3]; 5.0 mM compound) | Cell survival (average optical density, an index of cell number) ([3]; 10.0 mM compound) | Cell survival (average optical density, an index of cell number) ([3]; 20.0 mM compound) | Toxicity in cell culture (in words) ([3]; NIH 3T3, 0 to 20 mM)
c1c[nH]cn1 [Compound 1, Imidazol] | 12.1 μmol/g of body weight | 5.3 μmol/g of body weight | 30 | 10 to 20 | – | – | – | – | – | – | – | – | – | – | – | – | –
CCOC(=O)CC(C(=O)O)n1ccnc1 (racemic) [Compound 9, (±)-3-(etoxycarbonyl)-2-imidazol-1-ilpropionic acid] | 13.9 μmol/g of body weight | 5.8 μmol/g of body weight | 10 | 20 | 6 | 6.6 | 1 | No signs of toxicity were detected | absent | < 0.5 μmol/g of body weight | < 0.2 μmol/g of body weight | did not exhibit any toxicity | 1.68 ± 0.04 | 1.38 ± 0.06 | 1.52 ± 0.13 | 1.54 ± 0.09 | did not exhibit any toxicity
